From patent US20050020576A1, “Kappa agonist compounds and pharmaceutical formulations thereof” (priority 1996, published 2005) come the findings set out here.

A word on the Ki: it is the dissociation constant of the complex between target and ligand, obtained from inhibition or displacement.

Counter-ions that a name gives are not always drawn. Like-named read-outs stand apart in the source and are kept apart here.

The target of assay [1] is cloned human kappa receptor (Homo sapiens, UniProt P41145). As to the kind of experiment: biochemical. The assay is classed as binding.
In assay [2] the test system is formalin-induced flinching. Put plainly: animal or person. The format is in vivo, male Sprague-Dawley rats. To be noted: for Late Phase Formalin A50 / Late Phase Formalin (i. paw), % @ 300 / Formalin A50 mg/kg s.c. / Late Phase Formalin, % @ 300: rat, in vivo; for inhibition in vivo at 0.3 µM: Rattus norvegicus, read-out: Formalin (% A @ 300 nM) i. paw; for Formalin A50 mg/kg s.c.: sc.

cloned human kappa receptor, sequence (P41145 whole entry): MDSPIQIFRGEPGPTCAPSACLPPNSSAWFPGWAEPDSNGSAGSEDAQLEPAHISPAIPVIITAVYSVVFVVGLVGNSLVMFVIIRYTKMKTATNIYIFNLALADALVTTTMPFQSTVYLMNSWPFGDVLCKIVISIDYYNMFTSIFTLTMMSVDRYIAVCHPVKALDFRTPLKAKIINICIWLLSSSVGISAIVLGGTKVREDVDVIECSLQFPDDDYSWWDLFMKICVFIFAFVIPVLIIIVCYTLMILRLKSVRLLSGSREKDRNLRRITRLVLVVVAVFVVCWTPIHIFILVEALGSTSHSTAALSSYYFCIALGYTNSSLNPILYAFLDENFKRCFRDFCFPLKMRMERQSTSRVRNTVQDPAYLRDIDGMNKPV

As to `CN(C(=O)Cc1ccc(Cl)c(Cl)c1)[C@H](CN1CCCC1)c1cccc(NS(N)(=O)=O)c1` (racemic) [Example 3c, 2-(3,4-Dichlorophenyl)-N-methyl-N-[(1R,S)-1-(3-sulfamidophenyl)-2-(1-pyrrolidinyl)ethyl]acetamide hydrochloride], the Ki in assay [1] (Ki (nM) [3H]-Diprenorphin κ) turned out to be 0.12 nM. In addition, the “Late Phase Formalin A50” value in assay [2] came out at 0.27 mg/kg.

For the compound `COc1ccc(C(CN2CCCC2)N(C)C(=O)Cc2ccccc2NS(C)(=O)=O)cc1` (racemic) [Example 128], in assay [1] (Table IIIB, read-out: Ki(nM) [3H]-Diprenorphin κ), the Ki is 110 nM. The “Late Phase Formalin (i. paw), % @ 300” value in assay [2] was determined as 56% @ 300.

Compound `CN(C(=O)Cc1ccccc1NS(C)(=O)=O)C(CN1CCCC1)c1ccc(O)cc1` (racemic) [Example 129A, (R,S)-2-(2-N-Methylsulfonamido-2-aminophenyl)-N-methyl-N-1-(4-hydroxyphenyl)-2-(1-pyrrolidinyl)ethyl]acetamide] gave a Ki in assay [1] (Ki (nM) [3H]-Diprenorphin κ) of 59 nM. Also, in assay [2], the “Late Phase Formalin (i. paw), % @ 300” value turned out to be 46% @ 300.

As for `CNS(=O)(=O)c1ccccc1CC(=O)N(C)C(CN1CCCC1)c1ccccc1F` (racemic) [Example 147], in assay [1] (Ki (nM) [3H]-Diprenorphin κ), the Ki was determined as 10 nM. For the same compound, in assay [2], the “Late Phase Formalin (i. paw), % @ 300” value amounted to 56% @ 300.

As to `C=CCN1CCN(C(=O)Cc2ccc(Cl)c(Cl)c2)[C@H](CN2CCCC2)C1` [Example 1ff, 4-Allyl-1-[(3,4-dichlorophenyl)acetyl]-2-(R)-[(1-pyrrolidinyl)methyl]piperazine hydrochloride], in assay [1] (Ki, nM 3H-Diprenorphin), the Ki is 0.58 nM. In addition, the inhibition in vivo at 0.3 µM in assay [2] is 98%.

Consider `COC(=O)N1CCN(C(=O)Cc2ccc(Cl)c(Cl)c2)[C@@H](CN2CCC[C@H]2CO)C1` [Example 1ii, Methyl-4-[(3,4-dichlorophenyl)acetyl]-3-(S)-[(2-(S)-pyrrolidinemethanol)methyl]-1-piperazinecarboxlate hydrochloride], for which, in assay [1] (Ki, nM 3H-Diprenorphin), the Ki is 21.5 nM. For the same compound, in assay [2], the inhibition in vivo at 0.3 µM is 60%.

In the case of `CS(=O)(=O)O[C@H]1CCN(CC2CN(S(C)(=O)=O)CCN2C(=O)Cc2ccc(Cl)c(Cl)c2)C1` (stereo partly drawn) [Example 1jj, 4-Methanesulfonyl-1-[(3,4-dichlorophenyl)acetyl]-2-(R,S)-[3-(S)-methanesulfonate-1-(pyrrolidinyl)methyl]piperazine hydrochloride], in assay [1] (Ki, nM 3H-Diprenorphin), the Ki turned out to be 11.5 nM. For the same compound, the inhibition in vivo at 0.3 µM in assay [2] was found to be 49%.

`CS(=O)(=O)N1CCN(C(=O)Cc2ccc(Cl)c(Cl)c2)C(CN2CC[C@H](OC(=O)Cc3ccc(Cl)c(Cl)c3)C2)C1` (stereo partly drawn) [Example 1kk, 4-Methylsulphonyl-1-[(3,4-dichlorophenyl)acetyl]-2-(R,S)-[3-(S)-(3′,4′dichlorophenyl acetate)-1-(pyrrolidinyl)methyl]piperazine hydrochloride]: the affinity in assay [1] (Ki, nM 3H-Diprenorphin) corresponds to a Ki of 5.1 nM. For the same compound, the inhibition in vivo at 0.3 µM in assay [2] amounted to 52%.

Take `COC(=O)N1CCN(C(=O)Cc2ccc(Cl)c(Cl)c2)C(CN2CCCC2CO)C1` [Example 1l, Methyl-4-[(3,4-dichlorophenyl)acetyl]-3-(R)-[(2-(S)-pyrrolidinemethanol)methyl]-1-piperazinecarboxylate hydrochloride]: the Ki in assay [1] (Ki, nM 3H-Diprenorphin) is 3.5 nM. The “Formalin A50 mg/kg s.c.” value in assay [2] is 1.7 mg/kg.

For the compound `CS(=O)(=O)N1CCN(C(=O)Cc2ccc(C(F)(F)F)cc2)C(CN2CC[C@H](O)C2)C1` (stereo partly drawn) [Example 1nn, 4-Methylsulphonyl-1-[(4-α,α,α-triflouromethylphenyl)acetyl]-2-(R,S)-[(3-(S)-hydroxy-1-pyrrolidinyl)methyl]piperazine hydrochloride], the Ki in assay [1] (Ki, nM 3H-Diprenorphin) is 2.33 nM. Further, the “Formalin A50 mg/kg s.c.” value in assay [2] is reported as 7.1 mg/kg.

Compound `CCOP(=O)(Nc1cccc([C@@H](CN2CCCC2)N(C)C(=O)Cc2ccc(Cl)c(Cl)c2)c1)OCC` [Example 3g, 2-(3,4-Dichlorophenyl)-N-methyl-N-[(1S)-1-[3-(diethyl Phosphoryl)amino]phenyl)-2-(1-pyrrolidinyl)ethyl]acetamide hydrochloride] showed a Ki in assay [1] (Ki (nM) [3H]-Diprenorphin κ) of 0.12 nM. For the same compound, the “Late Phase Formalin A50” value in assay [2] came to 4.4 mg/kg.

In assay [1] (Ki (nM) [3H]-Diprenorphin κ), `CC(C)COC(=O)CNC(=O)CCC(=O)Nc1cccc([C@@H](CN2CCCC2)N(C)C(=O)Cc2ccc(Cl)c(Cl)c2)c1` [Example 3i, 2-(3,4-Dichlorophenyl)-N-methyl-N-{(1S)-1-[3-(3-(((iso-butoxycarbonyl)-methyl)aminocarbonyl)propionamido)phenyl]-2-(1-pyrrolidinyl)ethyl}acetamide hydrochloride] had a Ki of 0.14 nM. The “Late Phase Formalin, % @ 300” value in assay [2] is on record as 23% @ 300.

In the case of `CN(C(=O)Cc1ccc(Cl)c(Cl)c1)[C@H](CN1CCCC1)c1cccc(NC(=O)CCC(=O)NCC(=O)O)c1` [Example 3j, 2-(3,4-Dichlorophenyl)-N-methyl-N-{(1R,S)-1-[3-(3-(((hydroxycarbonyl)-methyl)aminocarbonyl)propionamido)phenyl]-2-(1-pyrrolidinyl)ethyl}acetamide hydrochloride], the Ki in assay [1] (Ki (nM) [3H]-Diprenorphin κ) was found to be 2.3 nM. In addition, the “Late Phase Formalin, % @ 300” value in assay [2] was found to be 38% @ 300.

Compound `CNS(=O)(=O)c1cc(CC(=O)N(C)[C@H](CN2CCCC2)c2ccccc2)ccc1Cl.Cl` [Example 3l, 2-[3-(N-Methylsulfamoyl)-4-chlorophenyl]-N-methyl-N-{[1S]-1-phenyl-2-[1-pyrrolidinyl]ethyl}acetamide hydrochloride] yielded a Ki in assay [1] (Ki (nM) [3H]-Diprenorphin κ) of 3.8 nM. Besides, the “Late Phase Formalin, % @ 300” value in assay [2] stood at 73% @ 300.

Turning to `COC(=O)CNC(=O)c1ccccc1CC(=O)N(C)[C@H](CN1CCCC1)c1ccccc1` [Example 3mm, Methyl N-[2-(2-pheny)-N-methyl-N-{[1S]-1-phenyl-2-(1-pyrrolidinyl)ethyl}acetamido]2-oxo-glycinate hydrochloride], the Ki in assay [1] (Ki (nM) [3H]-Diprenorphin κ) was determined as 16.4 nM. In addition, in assay [2], the “Late Phase Formalin, % @ 300” value worked out at 53% @ 300.

As for `CNS(=O)(=O)c1cccc(CC(=O)N(C)[C@H](CN2CCCC2)c2ccccc2)c1OC` [Example 3u], affinity in assay [1] (Ki (nM) [3H]-Diprenorphin κ) was put at a Ki of 1 nM. The “Late Phase Formalin, % @ 300” value in assay [2] is 48% @ 300.

`COc1ccc(CC(=O)N(C)[C@H](CN2CCCC2)c2ccccc2)cc1NS(C)(=O)=O` [Example 122, 2-(3-N-Methylsulfonamido-3-amino-4-methoxyphenyl)-N-methyl-N-[(1S)-1-phenyl-2-(1-pyrrolidinyl)ethyl]acetamide methane sulfonate] came in with a Ki in assay [1] (Ki (nM) [3H]-Diprenorphin κ) of 0.8 nM. Besides, the “Late Phase Formalin (i. paw), % @ 300” value in assay [2] came to 85% @ 300.

On to `CN(C(=O)Cc1ccc(OCc2ccccc2)c(NS(C)(=O)=O)c1)[C@H](CN1CCCC1)c1ccccc1` [Example 123, 2-(3-N-Methylsulfonamido-3-amino-4-benzyloxyphenyl)-N-methyl-N-[(1S)-1-phenyl-2-(1-pyrrolidinyl)ethyl]acetamide], for which the affinity in assay [1] (Ki (nM) [3H]-Diprenorphin κ), expressed as Ki, was 23.6 nM. In assay [2], the “Late Phase Formalin (i. paw), % @ 300” value was 87% @ 300.

`CN(C(=O)Cc1ccc(O)c(NS(C)(=O)=O)c1)[C@H](CN1CCCC1)c1ccccc1` [Example 124, 2-(3-N-Methylsulfonamido-3-amino-4-hydroxyphenyl)-N-methyl-N-[(1S)-1-phenyl-2-(1-pyrrolidinyl)ethyl]acetamide]: the Ki in assay [1] (Ki (nM) [3H]-Diprenorphin κ) was determined as 5.6 nM. Besides, the “Late Phase Formalin (i. paw), % @ 300” value in assay [2] is given as 77% @ 300.

In the case of `CN(C(=O)Cc1ccccc1NS(C)(=O)=O)[C@H](CN1CC[C@H](O)C1)c1ccccc1` [Example 125, 2-(2-N-Methylsulfonamido-2-aminophenyl)-N-methyl-N-[(1S)-1-phenyl-2-[1-(3S)-(3-hydroxypyrrolidinyl)ethyl]]acetamide], in assay [1] (Ki (nM) [3H]-Diprenorphin κ), the affinity corresponds to a Ki of 5.3 nM. In assay [2], the “Late Phase Formalin (i. paw), % @ 300” value was 81% @ 300.
